Where “and” joins values, the source holds several entries; their conditions need not be identical. Identical values can stand only once. Where no end group is shown, it is not given here.
Key:
LVV particles [1] = tested on: LVV particles; design: species or system lentivirus
LVV particles [2] = tested on: LVV particles; design: species or system lentivirus; remark: listed apart in the source
LVV particles [3] = assay type: binding, lentivirus

Q: Which “LVV adsorbed (binding capacity) across cycles” value (LVV particles [1]) does the source give for GKEAAFAA here?
A: > 10^9 TU/mL

Q: What about the “DBC10% (TU per mL of resin)” value (LVV particles [2]) of the same substance?
A: 5.3 · 10^9 TU per mL of resin and 3.9 · 10^9 TU per mL of resin and 4.4 · 10^9 TU per mL of resin and 3.7 · 10^9 TU per mL of resin

Q: Which results are given for SFVRIGLSD?
A: LVV adsorbed (binding capacity) across cycles (LVV particles [1]): ~10^9 TU/mL; binding capacity (summary) (LVV particles [3]): ~6.24·10^9 TU per mL of resin

Q: With “SRAFVGDADRD-Poros: peptide SRAFVGDADRD (SEQ ID NO: 4) conjugated on aminated Poros resin (also: conjugated to aminated Poros resin, site not given here)” as the substance, how does the “DBC10% (vg/mL), real time qPCR” value (LVV particles [3]) read?
A: 6.89·10^9 vg/mL

Q: With SRAFVGDADRD as the substance, how does the “LVV adsorbed (binding capacity) across cycles” value (LVV particles [1]) read?
A: ~10^9 TU/mL

Q: What about the “binding capacity (summary)” value (LVV particles [3]) of the same substance?
A: ~6.24·10^9 TU per mL of resin

From patent US20260022352A1, “COMPOSITIONS AND METHODS FOR PURIFYING […]” (North Carolina State University, priority 2023, published 2026)
